Like-named read-outs stand apart in the source and are kept apart here.
How the values were obtained:
S. saprophyticus 662 = assay: checkerboard titration, gemifloxacin and amoxicillin (MIC, FIC); format: cell-based, Staphylococcus saprophyticus
Experimental: The concentration range tested varied for each drug/organism combination to encompass the MIC endpoints of the individual components. […] The last well (H) in column 12 was used as a positive growth control well, containing only medium and test isolate.
The bacteria were diluted to a 0.5 McFarland standard and then further diluted 1/50. Each well was inoculated with 25 μl of the isolate to give a final inoculum density of approximately 5×10^5 cfu/ml. […] After inoculation, the plates were covered with a 96 well microtitre plate lid and incubated at 35° C. in ambient air for 20–24 hours. A 10 μl aliquot of the inoculum was plated on trypticase soy agar containing 5% sheep blood to determine the purity of the final test inoculum.
Following incubation, a microtitre mirror reader (Cooke Instruments Ltd., England) was used to assist in determining the microdilution MIC endpoints. The MIC was determined as the lowest concentration of compound that inhibited visible growth of the organism.
2) S. saprophyticus 662 was obtained from the SmithKline Beecham Anti-Infectives Research Culture Collection and stored at −80° C. in 10% glycerol. Before testing, the isolate was passaged onto agar plates (trypticase soy agar containing 5% sheeps blood) from the frozen stock for two consecutive days. Cation adjusted Mueller Hinton broth (BBL, Cockeysville, Md.) was used for the isolate.
The combined effect of gemifloxacin and amoxicillin was investigated in S. saprophyticus 662 by using the checkerboard titration method described in Example 1.

[1] = test system: clinically isolated P. aeruginosa; assay: checkerboard titration, gemifloxacin or ciprofloxacin with ceftazidime, 27 clinical isolates (Example 4); format: cell-based, Pseudomonas aeruginosa; conditions: for FICA: FIC of gemifloxacin; for Cgemifloxacin MIC: in combination with ceftazidime; for MIC: Pseudomonas aeruginosa, drug alone, read-out: gemifloxacin MIC
Experimental: The test organisms were clinical isolates collected in Korea. Organisms were frozen at −70 C prior to testing. Testing was done by the checkerboard method in 96-well plates using Mueller-Hinton broth. […] Ceftazidime was also dispensed alone in the first row in the first column. Test strains of P. aeruginosa were grown for 18 h in Mueller-Hinton broth, and then these overnight cultures were diluted with the same fresh medium to the density of approximately 10^7 CFU/mL. The bacterial concentrations were determined by measuring optical density or turbidity of the suspension and were verified by standard colony counts on antibiotic-free agar plates. A diluted bacterial solution was applied to 96-well plates containing serially diluted antimicrobial agents to yield 10^4 CFU per spot. Plates were incubated aerobically overnight.
Minimal inhibitory concentrations (MICs) for each separate drug were determined. For wells along the growth-no growth interface, synergy was determined by calculating the Fractional Inhibitory Concentration (FIC) index. The Fractional Inhibitory Concentration (FIC) indices were calculated using the following formula: FICindex=FICA+FICB=[A]/MICA+[B]/MICB • Wherein: • FICA(or B), is the FIC of drug A (or B) MICA (or B) is the MIC of the organism to drug A (or B) • A (or B) is concentration of drug A (or B) that is the lowest inhibitory concentration
The FIC indices were interpreted using the following criteria: • ≦0.5=Synergy • >0.5–1.0=Additive • >1.0–4.0=Indifference • >4.0=Antagonism

CO/N=C1\CN(c2nc3c(cc2F)c(=O)c(C(=O)O)cn3C2CC2)CC1CN (racemic) [gemifloxacin, (R,S)-7-(3-aminomethyl-4-methoxyiminopyrrolidin-1-yl)-1-cyclopropyl-6-fluoro-4-oxo-1,4-dihydro-1,8-naphthyridine-3-carboxylic acid]
MIC (S. saprophyticus 662; Staphylococcus saprophyticus, 662, in presence of amoxicillin 0.125 μg/ml, read-out: gemifloxacin MIC): 0.004 mg/L
gemifloxacin MIC (S. saprophyticus 662; drug alone, no unit in this line (other lines μg/ml)): 0.016
MIC range ([1]; 27 clinically isolated P. aeruginosa): 0.25 to 32 mg/L
FICA ([1]; P. aeruginosa 6003): 0.25
Cgemifloxacin MIC ([1]; P. aeruginosa 6003): 0.25 mg/L
FICA ([1]; P. aeruginosa 6021): 0.25
Cgemifloxacin MIC ([1]; P. aeruginosa 6021): 0.25 mg/L
FICA ([1]; P. aeruginosa 6030): 0.13
Cgemifloxacin MIC ([1]; P. aeruginosa 6030): 0.125 mg/L
FICA ([1]; P. aeruginosa 6045): 0.25
Cgemifloxacin MIC ([1]; P. aeruginosa 6045): 1 mg/L
FICA ([1]; P. aeruginosa 6047): 0.13
Cgemifloxacin MIC ([1]; P. aeruginosa 6047): 1 mg/L
FICA ([1]; P. aeruginosa 6113): 0.25
Cgemifloxacin MIC ([1]; P. aeruginosa 6113): 0.125 mg/L
FICA ([1]; P. aeruginosa 6123): 0.13
Cgemifloxacin MIC ([1]; P. aeruginosa 6123): 0.125 mg/L
FICA ([1]; P. aeruginosa 6173): 0.13
Cgemifloxacin MIC ([1]; P. aeruginosa 6173): 0.125 mg/L
FICA ([1]; P. aeruginosa P032): 0.13
Cgemifloxacin MIC ([1]; P. aeruginosa P032): 0.0625 mg/L
FICA ([1]; P. aeruginosa P036): 0.13
Cgemifloxacin MIC ([1]; P. aeruginosa P036): 1 mg/L
FICA ([1]; P. aeruginosa P039): 0.25
Cgemifloxacin MIC ([1]; P. aeruginosa P039): 0.5 mg/L
MIC ([1]; P. aeruginosa 6003): 1 mg/L
MIC ([1]; P. aeruginosa 6021): 1 mg/L
MIC ([1]; P. aeruginosa 6030): 1 mg/L
MIC ([1]; P. aeruginosa 6045): 4 mg/L
MIC ([1]; P. aeruginosa 6047): 8 mg/L
MIC ([1]; P. aeruginosa 6113): 0.5 mg/L
MIC ([1]; P. aeruginosa 6123): 1 mg/L
MIC ([1]; P. aeruginosa 6173): 1 mg/L
MIC ([1]; P. aeruginosa P032): 0.5 mg/L
MIC ([1]; P. aeruginosa P036): 8 mg/L
MIC ([1]; P. aeruginosa P039): 2 mg/L

— patent US7169792B2, “Method of treating bacterial infections using gemifloxacin or a salt thereof and a β-lactam antibiotic” (priority 2002, dated 2007)
